Reference: publication PMC9223658, “New Borane-Protected Derivatives of α-Aminophosphonous Acid as Anti-Osteosarcoma Agents: ADME Analysis and Molecular Modeling, In Vitro Studies on Anti-Cancer Activities, and NEP Inhibition as a Possible Mechanism of Anti-Proliferative Activity” (International Journal of Molecular Sciences, 2022)

Legend:
Format in all cases: cell-based, human
[1] = system: active caspase 3 in HOS cells; assay: Active caspase 3 assay (flow cytometry); settings: 72 h
Method: (§1) The level of active executor caspase 3 and initiator caspase 9 was determined to examine whether compounds 4 and 6 induced apoptosis in the HOS and Saos-2 cells. The influence of compounds 4 and 6 on HOS and Saos-2 were determined with the caspase 3 assay, whereas the influence of compound 6 on the HOS cells was investigated with the caspase 9 assay. In both assays, the osteosarcoma cells (3.0 × 10^5 cells/mL) were seeded in 6-well plates. The cells were treated with compounds 4 and 6 at concentrations of 12.5, 25, 50 µM and 20, 40, 80 µM as well as 15, 30, 60 µM and 21.25, 42.5, 85 µM for 72 h, respectively. The solutions of the compounds were prepared in a medium with 2% FBS. […] Next, floating and adherent cells were harvested and subjected to further steps of the staining procedures according to the manufacturer’s instruction. The level of active caspase 3 and caspase 9 was determined using the PE Active Caspase-3 Apoptosis Kit (BD Pharmingen^TM) and the CaspaTag^TM Caspase-9 in Situ Assay Kit (Millipore, Darmstadt, Germany), respectively. The number of stained cells (active caspase 3- or 9-positive cells) was measured using FACS Calibur, and the obtained data were analyzed using Cell Quest Pro Version 6.0. for the Macintosh operating system (BD Pharmingen™). The presented results were calculated as a percent of cells with either active caspase 3 or 9 among all the analyzed cells.

[2] = system: active caspase 3 in Saos-2 cells; assay: Active caspase 3 assay (flow cytometry); settings: 72 h
Method: as §1

[3] = system: active caspase 9 in HOS cells; assay: Active caspase 9 assay (flow cytometry); settings: 72 h
Method: as §1

[4] = system: HOS cells; assay: Migration, wound and transwell assays; settings: 24 h; for decrease of migration: wound and transwell assays
Method: (§2) The migration of the HOS and Saos-2 cells was examined using the wound and transwell assays. The wound assay was performed in plastic plates (3-cm diameter, Nunc), in which the osteosarcoma cells were seeded at a density of 3.0 × 10^5 cells/mL. The assay was performed as described previously. Briefly, confluent cell cultures (with wounds) were treated with compounds 4 and 6 at concentrations of 12.5, 25, 50 µM and 20, 40, 80 µM as well as 15, 30, 60 µM and 21.25, 42.5, 85 µM for 24 h, respectively. The solutions of the compounds were prepared in a medium with 2% FBS. The control was constituted by the untreated cells (0 µM). To determine the migratory activity of the cells, the width of the wounds (at 0 and 24 h after incubation) was measured, and photos were taken using an inverted microscope Olympus CKX41 equipped with Image Processing (CellSense) software (Olympus, Tokyo, Japan). The results were expressed as a percentage of wound closure calculated using the following formula: ((width of wound at 0h—width of wound after 24h)/width of wound at 0h) × 100%.
(§3) The transwell migration assay was performed using inserts equipped with a membrane with 8 µm pore size in 24-well plates (Corning, Durham, NC, USA). To this end, the osteosarcoma cells (1 × 10^6 cells/mL) were suspended in a medium supplemented with 0.5% FBS and compounds 4 or 6 at the same concentrations as in the wound assay. The cells were added to the top chambers. The bottom chambers were filled with an appropriate medium supplemented with 10% FBS. After 24 h of incubation, the number of osteosarcoma cells migrating to the lower surface of the insert membrane was quantified using Calcein AM (Sigma Aldrich), which releases the fluorophore after intracellular degradation. The fluorescence was measured by means of a Perkin Elmer Victor^TM plate reader (Thermo Fisher Scientific, Rockford, IL, USA). The cell migratory activity after the treatment with compounds 4 and 6 was calculated as a percentage of invading cells in comparison with the number of invading untreated cells (100%; control).

[5] = system: Saos-2 cells; assay: Migration, wound and transwell assays; settings: Saos-2, 24 h
Method: as §2, §3

[6] = system: HOS cells; assay: Invasiveness, BME-coated transwell assay; settings: 24 h
Method: The invasiveness of the HOS osteosarcoma cells was assessed after treatment with compound 4 at concentrations of 12.5, 25 and 50 µM. The assay was carried out using the Trevigen’sCultureCoat®24-well Cell Invasion Assay (R&D Systems, Minneapolis, […], USA) equipped with a Basement Membrane Extract (BME)-coated membrane (8 µm) of transwell inserts. The assay was performed according to the manufacturer’s instruction and as in the transwell migration assay described above.

[7] = system: HOS cells; assay: BrdU proliferation assay, 96 h; settings: 25 µM, cells pre-treated with 100 µM thiorphan for 1 h, 96 h
Method: (§4) In the study on the implication of NEP in the anti-proliferative activity of compound 4, cell proliferation was determined with the BrdU assay. Cell cultures were prepared as described above. Depending on the requirements, the HOS and Saos-2 cells were treated with non-cytotoxic concentrations of the NEP inhibitor—thiorphan (1, 5, 20, 100, 200, 500 µM) or pre-treated with thiorphan (100 µM) for 1 h. In this scheme, compound 4 (HOS—25 µM; Saos-2—60 µM) was added alone or in combination with the NEP inhibitor into the cell cultures. Finally, cell proliferation was evaluated with the BrdU Cell Proliferation Assay according to the manufacturer’s instructions (Millipore, Darmstadt, Germany) after a 96-h incubation.
(§5) The results of these assays were calculated as a percent of the untreated cells (100%; control). Then, the IC50 (concentration resulting in 50% inhibition of proliferation) and CC50 (concentration resulting in a 50% decrease in viability) values were calculated from a non-linear regression (log(inhibitor) vs. normalized response-variable slope) using GraphPad Prism 5.0 (GraphPAD Software Inc., San Diego, CA, USA). The IC50 and CC50 results were presented as themean ± SD of at least three experiments. In the case of the BrdU assay, the results were presented as a percent of untreated cells (100%; control).

[8] = system: Saos-2 cells; assay: BrdU proliferation assay, 96 h; settings: Saos-2, 60 µM, cells pre-treated with 100 µM thiorphan for 1 h, 96 h
Method: as §4, §5

Question: With `[BH3-][P+](OC(C)C)(OC(C)C)C(Nc1ccc(C)cc1)c1ccccc1` (centres unmarked) [Compound 6, [1-(N-p-tolylamino)]-1-phenylmethylphosphonous acid-borane diisopropyl ester] as the compound, how does the “increase in active caspase 3 vs untreated cells” value ([1]; 40 µM) read?
Answer: approx. 9%

Question: What about the “increase in active caspase 3 vs untreated cells” value ([1]; 80 µM) of the same compound?
Answer: ~20%

Question: What about the “increase in active caspase 3 vs untreated cells” value ([2]; Saos-2, 42.5 µM) of the same compound?
Answer: approx. 4%

Question: What about the “increase in active caspase 3 vs untreated cells” value ([2]; Saos-2, 85 µM) of the same compound?
Answer: ~6%

Question: And the “increase in active caspase 9 vs untreated cells” value ([3]; 40 µM)?
Answer: approx. 4%

Question: And the “increase in active caspase 9 vs untreated cells” value ([3]; 80 µM)?
Answer: ~6%

Question: And the depression of migration ([4]; 80 µM)?
Answer: approx. 20%

Question: And the effect on migration [5]?
Answer: not affected

Question: For `[BH3-][P+](OC(C)C)(OC(C)C)C(Nc1ccc(Br)cc1)c1ccc([N+](=O)[O-])cc1` (centres unmarked) [Compound 4, [1-(N-p-bromophenylamino)]-1-(p-nitrophenyl)methylphosphonousacid-borane diisopropyl ester], which “increase in active caspase 3 vs untreated cells” value ([1]; 25 µM) is on record?
Answer: approx. 5%

Question: What about the “increase in active caspase 3 vs untreated cells” value ([1]; 50 µM) of the same compound?
Answer: ~6%

Question: What about the “increase in active caspase 3 vs untreated cells” value ([2]; Saos-2, 30 µM) of the same compound?
Answer: approx. 5%

Question: What about the “increase in active caspase 3 vs untreated cells” value ([2]; Saos-2, 60 µM) of the same compound?
Answer: ~10%

Question: What about the decrease of migration ([4]; 25 µM) of the same compound?
Answer: approx. 19%

Question: And the decrease of migration ([4]; 50 µM)?
Answer: approx. 38%

Question: And the effect on migration [5]?
Answer: not affected

Question: And the “decrease in cell invasiveness” value ([6]; 12.5 µM)?
Answer: approx. 53%

Question: What about the “decrease in cell invasiveness” value ([6]; 25 µM) of the same compound?
Answer: ~70%

Question: What about the “decrease in cell invasiveness” value ([6]; 50 µM) of the same compound?
Answer: ~82%

Question: And the “effect of thiorphan pretreatment on anti-proliferative properties” value [7]?
Answer: partially abolished

Question: And the “effect of thiorphan pretreatment on anti-proliferative properties” value [8]?
Answer: partially abolished
